This note sets out measurements from patent publication US10464925B2, “Methods to induce targeted protein degradation through bifunctional molecules” (Dana-Farber Cancer Institute, Inc., priority 2015, dated 2019).

One assay concerns NGP. Kind of assay: Cell viability, ATPlite 72 hours. It is filed as cell-based. Conditions: NGP; for IC50: read-out: IC50 (nM) NGP. (In general: ATP-based viability assays read luminescence as a measure of living cells.)
The next assay concerns HCC1315. As to the kind of experiment: cells. Conditions: 72 h.
Another assay relates to KARPAS. As to the kind of experiment: cells. Conditions: 72 h.

SMILES strings stand for the structures. Where two headings read alike, the source gives them in different places.

`Cc1sc2c(c1C)C(c1ccc(Cl)cc1)=N[C@@H](CC(=O)NCCCCCCCCNC(=O)COc1cccc3c1C(=O)N(C1CCC(=O)NC1=O)C3=O)c1nnc(C)n1-2` (stereo partly shown) [dBET6]: the Emax with NGP (72 h, read-out: Emax (%) NGP) was 21.9%; in the assay with HCC1315 (read-out: Emax (%) HCC1315), 41.2%; in the assay on KARPAS (read-out: Emax (%) KARPAS), 21%. For the same compound, the half-maximal inhibitory concentration (IC50) (as a rule, the concentration at which inhibition is half-maximal) in the assay with NGP (72 h) amounted to 188 nM; in the assay with NGP, 188 nM; with HCC1315 (read-out: IC50 (nM) HCC1315), 1060 nM; in the assay with KARPAS (read-out: IC50 (nM) KARPAS) it was 2.18 nM.
